According to PubChem BioAssay (NCI):
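How tested: cells in 96-well plates exposed to compound for 48 hours at five concentrations. At the TGI there is no net growth.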

What was measured:
Test in all cases: inhibition of tumour cell growth, NCI panel, 48 h
ACHN renal = test system: ACHN renal
SN12C renal = test system: SN12C renal
CCRF-CEM leukemia = test system: CCRF-CEM leukemia
SW-620 colon = test system: SW-620 colon
NCI-H23 lung = test system: NCI-H23 lung
K-562 leukemia = test system: K-562 leukemia
CAKI-1 renal = test system: CAKI-1 renal
NCI-H522 lung = test system: NCI-H522 lung
MDA-N = test system: MDA-N
OVCAR-5 ovarian = test system: OVCAR-5 ovarian
IGROV1 ovarian = test system: IGROV1 ovarian
HS 578T breast = test system: HS 578T breast
RXF 393 renal = test system: RXF 393 renal
SF-295 CNS = test system: SF-295 CNS
OVCAR-3 ovarian = test system: OVCAR-3 ovarian
LOX IMVI melanoma = test system: LOX IMVI melanoma
TK-10 renal = test system: TK-10 renal
DU-145 prostate = test system: DU-145 prostate
KM12 colon = test system: KM12 colon
MOLT-4 leukemia = test system: MOLT-4 leukemia
HCC-2998 colon = test system: HCC-2998 colon
RPMI-8226 leukemia = test system: RPMI-8226 leukemia
A549 NSCLC = test system: A549 NSCLC
NCI-H460 lung = test system: NCI-H460 lung
HCT-15 colon = test system: HCT-15 colon
UACC-257 melanoma = test system: UACC-257 melanoma
MALME-3M melanoma = test system: MALME-3M melanoma
HT29 colon = test system: HT29 colon
786-0 renal = test system: 786-0 renal
UACC-62 melanoma = test system: UACC-62 melanoma
HOP-92 NSCLC = test system: HOP-92 NSCLC
SK-MEL-28 melanoma = test system: SK-MEL-28 melanoma
EKVX NSCLC = test system: EKVX NSCLC
OVCAR-8 ovarian = test system: OVCAR-8 ovarian
MDA-MB-435 = test system: MDA-MB-435
SF-539 CNS = test system: SF-539 CNS
PC-3 prostate = test system: PC-3 prostate
M14 melanoma = test system: M14 melanoma
SR leukemia = test system: SR leukemia
COLO 205 colon = test system: COLO 205 colon
MDA-MB-231 breast = test system: MDA-MB-231 breast
SNB-19 CNS = test system: SNB-19 CNS
U251 CNS = test system: U251 CNS
BT-549 breast = test system: BT-549 breast
SNB-75 CNS = test system: SNB-75 CNS
MCF7 breast = test system: MCF7 breast
SK-OV-3 ovarian = test system: SK-OV-3 ovarian
NCI/ADR-RES ovarian = test system: NCI/ADR-RES ovarian
SF-268 CNS = test system: SF-268 CNS
HCT-116 colon = test system: HCT-116 colon
SK-MEL-5 melanoma = test system: SK-MEL-5 melanoma
SK-MEL-2 melanoma = test system: SK-MEL-2 melanoma
OVCAR-4 ovarian = test system: OVCAR-4 ovarian
UO-31 renal = test system: UO-31 renal
HOP-62 NSCLC = test system: HOP-62 NSCLC
NCI-H226 lung = test system: NCI-H226 lung
A498 renal = test system: A498 renal

Measured: TGI

FC(F)(F)c1ccc(C2=N/S(c3ccccc3)=N\C(c3ccc(C(F)(F)F)cc3)=N/S(c3ccccc3)=N\2)cc1 (stereo not given)
not listed: HOP-62 NSCLC | NCI-H226 lung | A498 renal
> 100 µM: all other assays above

O=C1C(=C2SC(c3ccccc3)(c3ccccc3)c3ccccc32)C(=O)c2ccccc21
not listed: SK-MEL-2 melanoma
> 100 µM: all other assays above
